# Data reported in article PMC11117207, “Discovery of Antimicrobial Agents Based on Structural and Functional Study of the Klebsiella pneumoniae MazEF Toxin–Antitoxin System” (Antibiotics, 2024).
# Tested on: K. pneumoniae MazEF complex
# Test: In vitro assay of MazEF complex disruption by peptides (RNase Alert fluorescence assay)
# Assay type: biochemical, Klebsiella pneumoniae
# Settings: 20 μM peptide, 4 μM MazEF complex; 20 mM Tris pH 8.0, 200 mM NaCl; 30 min at 37 °C; RFU of 4 μM MazF = 100%, of 4 μM MazEF ~0%; three independent experiments
# Excerpt: To validate the ribonuclease activity of MazF toxin, an RNase Alert Kit (IDT, Coralville, IA, USA) was used. The principle is as follows. In the normal state, a fluorophore is covalently attached to one end of a synthetic RNA strand and is quenched by a quencher group at the other end of the RNA strand. However, the synthetic RNA is digested and the quencher is released when the ribonuclease interacts with substrates. Then, the released fluorophore emits fluorescence at 520 nm upon excitation at 490 nm. The resulting relative fluorescence units (RFU) were detected using a SPECTRAmax GEMINI XS spectrofluorometer (Molecular Devices, San Jose, CA, USA). All experiments were performed in triplicate.
# In addition to the disruption assay using small molecules, 10 short peptides that mimic the binding region between MazE and MazF were designed based on the tertiary crystal structure of the MazEF complex and purchased from ANYGEN (http://www.anygen.com, accessed on 21 April 2024) (Table 1). Among the peptides tested, six were designed to mimic the region on MazE where it binds to MazF, while the remaining four were designed to mimic the region on MazF where it binds to MazE. This design was chosen to investigate the interactions between MazE and MazF and their respective binding regions. The main principle and process were consistent with those of complex disruption by small molecules, which has been mentioned above. The concentration of the MazEF complex was fixed at 4 μM, and the concentration of competing peptides was 20 μM. Furthermore, all of the proteins and peptides used in this assay were prepared in 20 mM Tris, pH 8.0, and 200 mM NaCl. The MazEF complex was incubated with the peptides for 30 min at 37 °C before fluorescence measurement.
row,Substance,disruption of the MazEF complex (RNase activity)
1,"EYLCDSQGKEML [Peptide F, MazE-mimicking peptide […]; (65–76)]",80−83%
2,"YLCDSQGKEML [Peptide E, MazE-mimicking peptide […]; (66–76)]",80−83%
3,"DSQGKE [Peptide A, MazE-mimicking peptide DSQGKE (69–74)]",approximately 65%

# Same assay, conditions: 20 μM peptide, 4 μM MazEF complex; 30 min at 37 °C
row,Substance,RNase activity compared with the related peptide (in words)
1,"KSLDWKAR [Peptide I, MazF-mimicking peptide KSLDWKAR (79–86)]",dramatic increase in RNase activity
2,"QVKSLDWKAR [Peptide J, MazF-mimicking peptide […]; (77–86)]",dramatic increase in RNase activity
3,"YLCDSQGKE [Peptide B, MazE-mimicking peptide … (66–74)]",did not exhibit significant differences from Peptide A
4,"EYLCDSQGKE [Peptide C, MazE-mimicking peptide […]; (65–74)]",did not exhibit significant differences from Peptide A
5,"KSLD [Peptide G, MazF-mimicking peptide KSLD (79–82)]",no significant difference
6,"QVKSLD [Peptide H, MazF-mimicking peptide QVKSLD (77–82)]",no significant difference
